Earlier results on two compounds are cited in patent US20050260263A1, “Sustained release formulation for sparingly soluble main drugs” (Panion & BF Biotech Inc., priority 2004, published 2005).

Where two headings read alike, the source gives them in different places.

Turning to `CC[C@H]1OC(=O)[C@H](C)[C@@H](O[C@H]2C[C@@](C)(OC)[C@@H](O)[C@H](C)O2)[C@H](C)[C@@H](O[C@@H]2O[C@H](C)C[C@H](N(C)C)[C@H]2O)[C@](C)(O)C[C@@H](C)C(=O)[C@H](C)[C@@H](O)[C@]1(C)O` [Erythromycin], for the setting “water”, the Solubility entry was “only slightly soluble”.

With `CC[C@H]1OC(=O)[C@H](C)[C@@H](O[C@H]2C[C@@](C)(OC)[C@@H](O)[C@H](C)O2)[C@H](C)[C@@H](O[C@@H]2O[C@H](C)C[C@H](N(C)C)[C@H]2O)[C@](C)(OC)C[C@@H](C)C(=O)[C@H](C)[C@@H](O)[C@]1(C)O` [clarithromycin], the Solubility result reads like this: (gastric fluid) “very soluble”; (region of the lower intestine (pH 6 to 8)) “poorly soluble”; (upper region of the small intestine (pH 5.0)) “fairly soluble”.
